“Also recorded” adds a separate entry of the source. Where no end group is shown, it is not given here.
Test system: GFPβ1-10 expressing H1299c#G3 cells
Experiment: split GFP fluorescence complementation transduction assay (FACS)
Assay type: cell-based, human
Details: for GFP fluorescence / transduction compared to parental GFPβ11-(S-S)-TAT: dose-dependent comparison, up to 60 μM, FACS (FIG. 4, 5); for GFP fluorescence, head-to-head comparison of PTD/CPP delivery domains: 30 μM GFPβ11-(S-S)-PTD/CPP peptide, FACS (FIG. 3B, C); for escape efficiency compared to the six PEG unit (P6) spacer: GFPβ11-(S-S)-TAT-PEG(n)-GWWG series (FIG. 4)
Method: Peptide transduction. All transduction experiments were performed in 48-well plates. An optimized protocol was established. First, 15,000 or 20,000 cells were plated in each well. Next day, the indicated peptides were pipetted into eppendorf tubes. Transduction buffer (60% OptiMEM and 40% PBS) was added to peptide (100 μl total volume), directly mixed by pipetting up and down five times and then immediately transferred to cells. All pipetting steps were done in a laminar flow cell culture hood and standardized to 15 min for each plate before transferring the plate of cells to a 37° C. CO2 incubator for 1.5 h before addition of 500 μl DMEM supplemented with 10% FBS and another incubation round for 3.5 h in the 37° C. CO2 incubator (alternatively cells were incubated 2 h with peptides and another 4 h with DMEM, 10% FBS (FIG. 8b, c, d). For the transduction time-course, cells were incubated with peptides in transduction buffer until indicated time-points. All cells were trypzinized and collected in 250 μl OptiMEM without phenol red and analyzed by FACS (GFP, FSC/SSC). 4000 viable cells were analyzed per sample. Data is presented as fold change in fluorescence compared to non-treated cells.
To address these problems, the disclosure provides a self-assembling, bimolecular or split GFP fluorescence complementation system that was originally designed to tag and monitor proteins. GFP is composed of 11 β-strands that form a barrel structure allowing for peptidyl backbone cyclization and formation of a fluorescent chromophore. […] Importantly, co-incubation of GFPβ1-10 with the GFPβ11 peptide in trans efficiently reconstitutes GFP fluorescent chromophore bond and GFP fluorescence (FIG. 1a). To study PTD-mediated delivery, cell lines were generated that constitutively expressed the non-fluorescent GFPβ1-10 fragment and treated them in trans with a GFPβ11-PTD/CPP peptide to restore GFP fluorescence.
Cell clones of various human cell lines constitutively expressing the non-fluorescent large GFPβ1-10 fragment, including H1299 non-small cell lung carcinoma, HaCaT immortalized keratinocytes, and MDA-MB-231 and MCF7 breast carcinomas, and assayed for reconstituted intracellular GFP fluorescence after treatment with transducible GFPβ11-PTD/CPP peptides by FACS (FIG. 1a). Starting with human H1299 cells, known to be a good model for PTD/CPP-mediated uptake, two GFPβ1-10 expressing clones were generated (c#G3 and c#G4) (FIG. 8a). GFPβ1-10 expressing H1299c#G3 cells were treated for 1.5 h with increasing amounts of transducible GFPβ11-TAT peptide (0-60 μM), followed by an additional 3.5 h in DMEM supplemented with 10% FBS. At 5 h post-addition of GFPβ11-TAT peptide, cells were trypsinized and live cell assayed by FACS.

## RDHMVLHEYVNAAGIT-GGSGGC-(5-5)-CGG-RKKRRQRRR-(PEG)6-GWG [GFPβ11-(S-S)-TAT-P6-GWG]
  GFP fluorescence / transduction compared to parental GFPβ11-(S-S)-TAT: no net effect

## RDHMVLHEYVNAAGIT-GGSGGC-(S-S)-CGG-GALFLGFLGAAGSTMGAWSQPKKKRKV (chain 1 RDHMVLHEYVNAAGITGGSGGC; chain 2 CGGGALFLGFLGAAGSTMGAWSQPKKKRKV; also: disulfide to a chain's N/C-terminus) [GFPβ11-(S-S)-MPG]
  GFP fluorescence, head-to-head comparison of PTD/CPP delivery domains: only slightly above background

## RDHMVLHEYVNAAGIT-GGSGGC-(S-S)-CGG-KKKKKKKK (chain 1 RDHMVLHEYVNAAGITGGSGGC; chain 2 CGGKKKKKKKK; also: disulfide to a chain's N/C-terminus) [GFPβ11-(S-S)-8xLys]
  GFP fluorescence, head-to-head comparison of PTD/CPP delivery domains: failed to induce GFP fluorescence to any high degree
30 μM peptide plus 100 μM Chloroquine (FIG. 3C)
  GFP fluorescence after addition of Chloroquine: failed to induce GFP fluorescence to any high degree

## RDHMVLHEYVNAAGIT-GGSGGC-(S-S)-CGG-LLIILRRRIRKQAHAHSK [GFPβ11-(S-S)-pVEC]
  GFP fluorescence, head-to-head comparison of PTD/CPP delivery domains: only slightly above background

## RDHMVLHEYVNAAGIT-GGSGGC-(S-S)-CGG-RKKRRQRRR-(PEG)6-GFFG (disulfide bond, (PEG)6-GFFG) [GFPβ11-(S-S)-TAT-P6-GFFG]
  GFP fluorescence / transduction compared to parental GFPβ11-(S-S)-TAT: no net effect

## RDHMVLHEYVNAAGIT-GGSGGC-(S-S)-CGG-RKKRRQRRR-(PEG)6-GFWG [GFPβ11-(S-S)-TAT-P6-GFWG]
  GFP fluorescence / transduction compared to parental GFPβ11-(S-S)-TAT: two-fold increase

## RDHMVLHEYVNAAGIT-GGSGGC-(S-S)-CGG-RKKRRQRRR-(PEG)6-GG [GFPβ11-(S-S)-TAT-P6-GG]
  GFP fluorescence / transduction compared to parental GFPβ11-(S-S)-TAT: lower uptake than GFPβ11-(S-S)-TAT peptide

## RDHMVLHEYVNAAGIT-GGSGGC-(S-S)-CGG-RKKRRQRRR-(PEG)6-GWGGWG [GFPβ11-(S-S)-TAT-P6-WGGW]
PEG6-spaced EED peptides (FIG. 5A-D)
  enhancement compared to the -GWWG motif: decreased the enhancement approximately two-fold

## RDHMVLHEYVNAAGIT-GGSGGC-(S-S)-CGG-RKKRRQRRR-(PEG)6-GWWG [GFPβ11-(S-S)-TAT-P6-GWWG]
  GFP fluorescence / transduction compared to parental GFPβ11-(S-S)-TAT: retained enhanced cytoplasmic delivery; also recorded: four-fold increase

## RDHMVLHEYVNAAGIT-GGSGGC-(S-S)-CGG-RKKRRQRRR-(PEG)12-GWWG (disulfide bond, (PEG)12-GWWG) [GFPβ11-(S-S)-TAT-P12-WW]
  escape efficiency compared to the six PEG unit (P6) spacer: lower escape efficiency

## RDHMVLHEYVNAAGIT-GGSGGC-(S-S)-CGG-RKKRRQRRR-(PEG)18-GWWG (disulfide bond, (PEG)18-GWWG) [GFPβ11-(S-S)-TAT-P18-WW]
  escape efficiency compared to the six PEG unit (P6) spacer: lower escape efficiency
  GFP fluorescence / transduction compared to parental GFPβ11-(S-S)-TAT: reduced GFPβ11 delivery below that of the control GFPβ11-(S-S)-TAT

## RDHMVLHEYVNAAGIT-GGSGGC-(S-S)-CGG-RRRRRRRR (chain 1 RDHMVLHEYVNAAGITGGSGGC; chain 2 CGGRRRRRRRR; also: disulfide to a chain's N/C-terminus) [GFPβ11-(S-S)-8xArg]
  GFP fluorescence, head-to-head comparison of PTD/CPP delivery domains: significantly better uptake

From patent US20170275650A1, “ENDOSOMAL ESCAPE DOMAINS FOR […] OF MACR[…] CELLS” (priority 2014, published 2017)
